Measured values as given in paper PMC2222991 (The Journal of General Physiology, 1999).

Columns and labels:
[1] = target: T1, TAX-4 (C. elegans tax-4 CNG channel subunit) (Caenorhabditis elegans, UniProt Q03611); test: inside-out patch macroscopic current, Hill fit; assay type: cell-based
T1 sequence (Q03611 1-733): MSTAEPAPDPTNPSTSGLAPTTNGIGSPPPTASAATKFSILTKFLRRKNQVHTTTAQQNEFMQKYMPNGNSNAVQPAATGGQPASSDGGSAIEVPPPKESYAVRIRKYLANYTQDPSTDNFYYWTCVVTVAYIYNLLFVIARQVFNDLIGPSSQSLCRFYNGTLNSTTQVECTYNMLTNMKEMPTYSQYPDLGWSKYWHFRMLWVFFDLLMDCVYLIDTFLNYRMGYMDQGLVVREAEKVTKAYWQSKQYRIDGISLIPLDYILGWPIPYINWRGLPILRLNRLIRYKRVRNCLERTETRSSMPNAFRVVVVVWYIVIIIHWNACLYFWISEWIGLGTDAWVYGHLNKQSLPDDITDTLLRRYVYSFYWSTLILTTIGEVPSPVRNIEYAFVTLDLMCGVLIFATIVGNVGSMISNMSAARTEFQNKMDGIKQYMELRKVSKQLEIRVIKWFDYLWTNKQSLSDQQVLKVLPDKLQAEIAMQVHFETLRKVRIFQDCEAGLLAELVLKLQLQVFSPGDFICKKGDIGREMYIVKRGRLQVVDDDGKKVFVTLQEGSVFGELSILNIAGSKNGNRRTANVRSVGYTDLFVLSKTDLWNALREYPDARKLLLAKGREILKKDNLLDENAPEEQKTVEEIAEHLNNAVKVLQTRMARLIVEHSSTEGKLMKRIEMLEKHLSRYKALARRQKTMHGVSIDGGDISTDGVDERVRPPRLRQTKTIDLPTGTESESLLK

RTL2 = test: inside-out patch macroscopic current, Hill fit; assay type: cell-based, Bos taurus / Caenorhabditis elegans; settings: read-out: K 1/2; agonist; divalent-free solution pH 7.2; -80 or -100 mV; n = 4
RTL = test: inside-out patch macroscopic and single-channel currents, Hill fit; assay type: cell-based, Bos taurus / Caenorhabditis elegans; settings: read-out: K 1/2; agonist; divalent-free solution pH 7.2; -80 or -100 mV; n = 8
RTB = test: inside-out patch macroscopic current, Hill fit; assay type: cell-based, Bos taurus / Caenorhabditis elegans; settings: read-out: K 1/2; agonist; divalent-free solution pH 7.2; -80 or -100 mV; n = 5
TRC = test: inside-out patch macroscopic current, Hill fit; assay type: cell-based, Caenorhabditis elegans / Bos taurus; settings: read-out: K 1/2; agonist; divalent-free solution pH 7.2; -80 or -100 mV; n = 4
ROPTL2 = test: inside-out patch macroscopic current, Hill fit; assay type: cell-based, Bos taurus / Caenorhabditis elegans / Ictalurus punctatus; settings: read-out: K 1/2; agonist; divalent-free solution pH 7.2; -80 or -100 mV; n = 4
RTL1 = test: inside-out patch macroscopic current, Hill fit; assay type: cell-based, Bos taurus / Caenorhabditis elegans; settings: read-out: K 1/2; agonist; divalent-free solution pH 7.2; -80 or -100 mV; n = 4
RTC = test: inside-out patch macroscopic current, Hill fit; assay type: cell-based, Bos taurus / Caenorhabditis elegans; settings: read-out: K 1/2; agonist; divalent-free solution pH 7.2; -80 or -100 mV; n = 8

With `Nc1nc2c(ncn2[C@@H]2O[C@@H]3COP(=O)(O)O[C@H]3[C@H]2O)c(=O)[nH]1` [cGMP] the EC50 [1] was 0.4 µM, the EC50 (RTL2) was 4 µM and the EC50 (RTL) was 1 µM. For the same compound, the EC50 (RTB) was 63 µM, the EC50 (TRC) was 4.7 µM and the EC50 (ROPTL2) was 3 µM. For the same compound, the EC50 (RTL1) was 24 µM and the EC50 (RTC) was 1.3 µM.
